# How the values were obtained:
# [1] = system: actin cytoskeleton of MDA-MB-231, BT474 and MCF10A cells; experiment: Actin cytoskeleton confocal imaging after pulsed AC magnetic field; assay type: cell-based, human; conditions: cancerous cells, CD alone (100 nM)
# Protocol: For confocal studies, MDA-MB-231, BT474 and MCF10A cells were plated on Lab-Tek II Chamber slides at a concentration of 1×10^5 cells/well and allowed to grow overnight. The cells were then treated with 0.1 mg/mL Alexa Fluor® 647-PAA-P85-MNP for 24 h followed by thorough washing with acid saline and replacement with complete media. The cells were incubated with 100 nM CD for 1 h to enact cytoskeletal damage in a nonlethal capacity. After washing, the cells were exposed to the pulsed AC magnetic field (50 Hz, 50 kA/m) (10 min on, 5 min off, total exposure 30 min). Appropriate controls included cells not exposed to the magnetic field and untreated cells. Cells were then incubated at 37° C. for 24 h, fixed using 4% paraformaldehyde and permeabilized using 0.5% Triton-X 100. Fixed cells were stained with ActinGreen 488 (Life Technologies, Carlsbad, Calif.), a phalloidin-based actin stain and Hoechst 33342. Images were acquired using a Zeiss CLSM 710 Spectral Confocal Laser Scanning Microscope with the 63×/1.4 Oil Plan Apo lens.
# [2] = system: lysosomes of MDA-MB-231, BT474 and MCF10A cells; experiment: Lysosomal membrane permeabilization, acridine orange assay; assay type: cell-based, human; conditions: positive control, 150 μM, three hours, no field
# Protocol: MDA-MB-231, BT474 and MCF10A cells were seeded at 1×10^5 cells/well in 8-well Lab-Tek II Chamber slides. Cells were allowed to adhere for several days and were treated with PAA-P85-MNPs at a concentration of 0.1 mg/mL. After 24 h, the cells were washed and then exposed to an AC magnetic field (50 Hz, 50 kA/m) using the pulsed exposure regime for a total of 30 min. Three hours post exposure, cells were treated for 15 min with 10 μg/mL acridine orange stain. The cells were washed 3× with PBS and kept in complete media for imaging. Positive control cells were treated with 150 μM hydrogen peroxide for 3 h followed by thorough washing and staining with acridine orange. Live cell images were acquired using a Zeiss CLSM 710 Spectral Confocal Laser Scanning Microscope with the 63×/1.4 Oil Plan Apo lens.
Structure (SMILES),actin cytoskeleton structure [1],lysosomal membrane permeabilization (acridine orange) [2]
"C=C1[C@@H](C)[C@H]2[C@H](Cc3ccccc3)NC(=O)[C@]23[C@H](OC(C)=O)/C=C/[C@@](C)(O)C(=O)[C@@H](C)C/C=C/[C@H]3[C@@H]1O [CD, Cytochalasin D]",No significant differences in the cytoskeleton structure,–
OO [hydrogen peroxide],–,loss of punctuate red fluorescence
